{
  "source": "patent US7544666B2",
  "about": "“NAP derivatives” (Industrial Technology Research Institute, priority 2005, dated 2009)",
  "key": {"[1]": {"assay": "Stability in Hanks' balanced salt solution (HBSS)", "assay_type": "physicochemical", "settings": "37° C., relative to initial conc. in HBSS = 100.00", "procedure,_shortened": "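Compounds at 500 μM initial concentration were incubated 4 h at 37 °C in HBSS alone or on the apical side of Caco-2 monolayers (cultured 18–26 days, TEER over 350 Ω×cm^2). Apical and basolateral levels were quantified by reverse-phase HPLC at 210 nm against the initial concentration.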"}, "PC12 cells": {"tested_on": "PC12 cells", "assay": "Neural protection in H2O2/PC12 cell system (MTT)", "assay_type": "cell-based", "settings": "500 μM H2O2-induced PC12 cytotoxicity", "protocol": "The neural protection of NAP and the NAP derivatives prepared in EXAMPLE 1 were measured by H2O2/PC12 cell system. PC12 cells (4×10^4 cells) were seeded into a 96-well plate and incubated for 24 hours. NAP and the NAP derivatives prepared in EXAMPLE 1 at different concentration were added into the plate and incubated at 37° C. for 4 hours. Hydrogen peroxide with a concentration of 500 μM was then added to induce cytotoxicity. After 24 hours, supernatants were discarded and MTT [3-(4,5-dimethylthiazol-2-yl)-2,5-diphenyltetrazolium bromide] solution (0.5 mg/ml) was added for 4-hour reaction at 37° C. One hundred and fifty μl of DMSO was added to solve formazan product. Absorbance was measured by Microplate Reader at 570 nm, and cell viability was calculated. […] FIGS. 3 to 8 show the cell protection of the NAP derivatives from H2O2-induced PC12 cytotoxicity."}, "[2]": {"tested_on": "scopolamine-induced amnesia rats", "assay": "Morris water maze in scopolamine-induced amnesia rats", "assay_type": "in vivo, rat", "settings": "0.25 mg/kg subcutaneous, 5 min after scopolamine 1 mg/kg i.p.; FIG. 11", "protocol": "Scopolamine-induced amnesia […] were used in combination of Morris water maze, a memory and behavior analysis system, to assess the in vivo effects of the NAP derivative BMEC-NAP0701 and NAP.\nSprague-Dawley male rats with body weight of 220-250 g obtained from the National Laboratory Animal Center, Taiwan, were caged in an air-conditioned housing with a temperature of 23±1° C. and kept on an alternating 12-hour light and 12-hour dark schedule with sufficient feed and water. […]\nMorris Water Maze was performed with a water maze device containing a stainless pool with a size of 160 cm in diameter, 50 cm in height, and 15 mm in thickness of the wall and a platform with a size of 11 cm in diameter, and 22 cm in height. […] The swimming time and track were recorded by VEDEOMEX-V video tracing system, video recorder, and monitor (Columbus Instruments) and analyzed by Water Maze Program (Columbus Instruments). […]\nLate of the third day: Two to four hours after the third day training, the platform was removed from the pool. The trained rats were separately sent to quadrant I and the swimming track was recorded for 60 sec. The time spent in finding the original platform was also recorded. […]\nEarly of the fifth day: The platform was placed in the quadrant II and submerged beneath water level about 1 cm. The rats were separately sent to quadrant I and the time spent in finding the platform was recorded. […]"}},
  "data": [
    {"compound": "CC[C@H](C)[C@H](NC(=O)[C@H](CO)NC(=O)[C@@H](NC(=O)[C@@H]1CCCN1C(=O)[C@H](C)NC(=O)[C@@H](N)CC(N)=O)C(C)C)C(=O)N1CCC[C@H]1C(=O)N[C@@H](CCC(N)=O)C(=O)O", "note": "[BMEC-NAP, H-NAPVSIPQ-OH, reference compound]", "values": [
      {"measurement": "Conc. after 4-hour in HBSS", "setting": "[1]", "result": 99.21},
      {"measurement": "concentration level at which cell viability was increased", "setting": "PC12 cells", "result": "picomolar (i.e. 10^−12) level"},
      {"measurement": "concentration level of cell protection effect", "setting": "PC12 cells; 4 h pre-incubation", "result": "femtomolar (i.e. 10^−15) level"},
      {"measurement": "memory improving effect (time spent in finding the platform vs scopolamine-induced rats)", "setting": "[2]", "result": "memory improving effect in vivo"}
    ]}
  ]
}
